# Laboratory results published in patent US20150182667A1, “Composition with Biofilm Dispersal Agents” (Vanderbilt University, priority 2012, published 2015).
# Where two headings read alike, the source gives them in different places.
# Experiments:
# [1] = test system: biofilm derived P. aeruginosa clinical strains (18189, 418); experiment: Biofilm susceptibility, Calgary Biofilm device (MBEC plates): MBIC and viable CFU; type: cell-based, Pseudomonas aeruginosa; details: * = with 5 mM D-AA; for Biofilm (MBIC) 418: P. aeruginosa 418 biofilm; for Biofilm (MBIC) 18189: P. aeruginosa 18189 biofilm
# Method: Biofilm susceptibility to antimicrobial agents in the presence and absence of D-AA was determined using the Calgary Biofilm device. Briefly, biofilms from overnight cultures were established as above on individual pegs of the minimum biofilm eradication concentration (MBEC) plates (Innovotech, Canada) with agitation for 48 h at 37° C. Following incubation, the lid with pegs was removed from the incubation plate, washed by re-suspending pegs into plate with wells containing 200 μl of 1×PBS, then placed into a 96-well challenge plate containing pre-diluted antibiotics with or without an […] for an additional 24 h at 37° C. Following challenge plates were washed, and the attached viable cells on PEGs within the biofilm were determined by plating serial dilutions onto blood agar plates (Remel). Corresponding minimal biofilm inhibitory concentration (MBIC) was also determined by measuring the optical density in individual wells of the challenge plate at 600 nm. The lowest concentration of antibiotic for which an optical density of <0.100 was recorded as the MBIC. For each antibiotic, the MBIC was determined in the presence or absence of a mixture of D-AA (D-Phenylalanine, D-Methionine, and D-Tryptophan) at an equimolar concentration of 5 mM. Three independent experiments were performed for each of these assays, with a minimum of 3 replicates.
# [2] = test system: planktonic P. aeruginosa clinical strains (18189, 418); experiment: MIC by CLSI broth microdilution, planktonic bacteria; type: cell-based, Pseudomonas aeruginosa; details: * = with 5 mM D-AA; for MIC: Pseudomonas aeruginosa
# Method: Overnight cultures of bacterial strains were diluted to a final concentration of 5×10^5 CFU/ml in MHB-II. The resulting bacterial suspension was aliquoted (100 μL) into polystyrene round-bottom 96-well plates containing 100 μL of a 2× concentration of a previously serially diluted (1:2) antibiotic. Each antimicrobial tested was serially diluted 10 times. Following the addition of bacteria, the microtiter plate was covered and was incubated under stationary conditions at 37° C. in the presence of 1× antibiotics. […] MICs of antibiotics were determined in triplicate according to the Clinical and Laboratory Standards Institute (CLSI) broth microdilution as described by the performance standards for antimicrobial susceptibility testing (M100-S22, January 2012).
# [3] = test system: S. aureus clinical isolate biofilms; experiment: Biofilm dispersal and prevention, crystal violet 96-well assay (Example 1); type: cell-based, Staphylococcus aureus; details: 5 mM
# Method: (§1) Biofilm formation was performed under static conditions in polystyrene 96-well plates (Corning, Inc., Corning, N.Y.). Briefly, overnight bacterial cultures were diluted to an OD600 of 0.1 in CA-MHB and 10 μL was added to individual wells filled with 190 μl of media and incubated at 37° C. for 48 h without shaking for biofilm growth. Following incubation, culture media was removed and 200 μL media containing individual D-AA at concentrations of 5 mM-1 nM was added. Plates were incubated for an additional 24 h at 37° C. After treatment, plates were gently washed with 1× phosphate buffered saline (PBS; pH 7.4) to remove non-adherent bacteria. Biofilms (i.e. attached cells) were then stained with 0.1% (w/v) crystal violet for 10 min, washed, followed by solubilization of crystal violet with 33% (v/v) acetic acid for 10 min. Biofilm biomass was determined by measuring the absorbance at 570 nm using a microtiter plate reader. For assays measuring the ability of D-AA to block biofilm formation, cells were grown under biofilm conditions as above in the presence of media containing D-AA. Three independent experiments with a minimum of 4 replicates were performed for each experimental assay. Representative images of the plates of CV stained biofilms following treatment with D-AA, prior to solubilization, were taken using a digital camera.
# [4] = test system: S. aureus clinical isolates biofilms; experiment: Biofilm dispersal and prevention, crystal violet assay (Example 3); type: cell-based
# Method: Like in Example 1, biofilm formation was assessed under static conditions using polystyrene 96-well plates (Corning, Inc.). Overnight bacterial cultures were diluted to an OD600 of 0.1 in TSB (˜10^7 CFU/mL), and 20 μL were added to individual wells filled with 180 μL of media and incubated at 37° C. for 48 h. To assess the biofilm dispersal activity of D-AAs, the culture medium from biofilms was removed after 48 h and 200 μL fresh medium containing either an individual D-AA or an equimolar mixture of D-AAs (1:1:1: D-Met:D-Pro:D-Trp) were added at the indicated concentrations. After treatment with D-AA(s) for 24 h, plates were gently washed with 1× phosphate buffered saline (PBS) to remove unattached cells, stained with 0.1% (w/v) crystal violet (Sigma Aldrich) for 10 min, rinsed with PBS, and then solubilized with 80% (v/v) ethanol. Biofilm biomass was determined by measuring the absorbance of solubilized stain at 570 nm using a microtiter plate reader. For assays measuring the ability of D-AA to block biofilm formation, cells were grown under biofilm conditions as above in the presence of media containing D-AAs. Representative images of the plates of CV-stained biofilms following treatment with D-AA prior to solubilization were taken using a digital camera. All assays were repeated in triplicate with a minimum of four technical replicates.
# human dermal fibroblasts = experiment: CellTiter-Fluor cell viability assay; type: cell-based; details: human fibroblasts, higher concentrations
# Method: To observe the cellular viability of PUR/D-AA composites, human dermal fibroblasts and human osteoblasts (PromoCell) were maintained in Dulbecco's Modified Eagle Medium (DMEM; Invitrogen) supplemented with 10% Fetal Bovine Serum (FBS) and 1× penicillin/streptomycin. Human epidermal keratinocytes (HEK-001; ATCC CRL-2404) were maintained in Keratinocyte-serum free media (GIBCO) supplemented with 5 ng/mL human recombinant EGF and 2 mM L-glutamine. All cell lines were cultured at 37° C. in 5% CO2. Prior to each assay cells were seeded at 100% confluence in black-clear bottom 96-well plates. After 24 h, cells were exposed to media containing D-AA, 50 mM-1 nM, and incubated for 24-48 h at 37° C. in 5% CO2. Following treatment, cells were washed, resuspended in 100 μL of sterile saline and viability was determined using the CellTiter-Flour Cell Viability Assay (Promega) following the manufacturer's instructions. Viability assays were performed in triplicate with a minimum of 3 replicates. Viability was reported as the percentage of viable cells relative to untreated controls.
# Human dermal fibroblasts and osteoblasts (PromoCell, Heidelberg, Germany) were maintained in Dulbecco's Modified Eagle Medium (DMEM; Invitrogen, Grand Island, N.Y.) supplemented with 10% Fetal Bovine Serum (FBS) and 1× penicillin/streptomycin at 37° C. in 5% CO2. Prior to each assay, cells were seeded at 100% confluence in black-clear bottom 96-well plates. After 24 h cells were exposed to media containing D-AA (1 nM-50 mM) and incubated for 24 h. Following treatment, cells were washed, re-suspended in 100 μL of sterile saline, and assessed for viability using the CellTiter-Fluor Cell Viability Assay (Promega, Madison, Wis.) following the manufacturer's instructions. Viability assays were performed in triplicate with a minimum of four replicates. Viability was reported as the percentage of viable cells relative to untreated controls.
# [5] = Release of D-AAs from PUR scaffolds in PBS (HPLC); type: physicochemical
# Method: Also, kinetic release assays were performed on the PUR scaffolds by incorporating 10 wt % of a 1:1:1 mixture of D-Tr:D-Pro:D-Met incubated in PBS for up to 8 weeks. The medium was be sampled twice weekly and analyzed for D-AAs by HPLC.
# PUR scaffolds incorporating 10 wt % of a 1:1:1 mixture of D-Met:D-Pro:D-Trp were incubated in PBS at 37° C. under static conditions for up to 8 weeks. This mixture was evaluated in vitro, in vivo and in the release kinetics tests to account for potential interactions between D-AAs during release. The medium was sampled on days 1, 2, 4, 7, 10, 14, 21, and 28 and analyzed for D-AAs by HPLC using a system equipped with a Waters 1525 binary pump and a 2487 Dual-Absorbance Detector at 200 nm. Samples of released D-AAs were eluted through an Atlantis HILIC Silica column (5 μm particle size, 4.6 mm diameter×250 mm length) using an isocratic mobile phase flowing at 1 mL/min. The mobile phase contained 2.5 mM potassium dihydrogen phosphate with pH=2.85 (A) and Acetonitrile (B) at a ratio of A25:B75. The column oven temperature was maintained at 30° C. Sample concentration was determined in reference to an external standard curve using the Waters Breeze system. Standard curves were prepared in the following concentration ranges: (1) 7.8 μg/mL to 1 mg/mL for D-Met and D-Pro and (2) […] to 100 μg/mL for D-Trp.
# [6] = test system: P. aeruginosa clinical isolate biofilms; experiment: Biofilm dispersal and prevention, crystal violet 96-well assay (Example 1); type: cell-based, Pseudomonas aeruginosa; details: 5 mM
# Method: as §1
# [7] = P. aeruginosa 418, read-out: Planktonic (MIC) 418
# [8] = P. aeruginosa 18189, read-out: Planktonic (MIC) 18189
SMILES,Biofilm (MBIC) 418 [1],Biofilm (MBIC) 18189 [1],Planktonic (MIC) 418 ([2]; P. aeruginosa 418),Planktonic (MIC) 18189 ([2]; P. aeruginosa 18189),"MIC [2, 7]","MIC [2, 8]","biofilm dispersal against panel of clinical isolates (biofilm biomass OD570) ([3]; S. aureus clinical isolates, FIGS. 3A, 3C)","biofilm dispersal in pre-screening of eight D-AAs ([3]; pre-formed S. aureus biofilms, FIG. 1)","dispersal of established biofilms (biofilm biomass) ([4]; panel of clinical isolates of methicillin-resistant S. aureus (n=5), 5 mM, 24 h, FIGS. 8A, 8C)","biofilm dispersal in pre-screening of eight individual D-AAs ([4]; pre-formed biofilms of four clinical isolates, 0.001-50 mM, FIG. 7)",cytotoxicity (human dermal fibroblasts),"cumulative release by day 14 ([5]; PUR scaffold with 10 wt % D-AA mixture, PBS 37° C.)","burst release ([5]; day 1, PUR scaffold with 10 wt % 1:1:1 D-Met:D-Pro:D-Trp, PBS 37° C.)",b parameter of Weibull model ([5]; fit of D-AA release data),"biofilm dispersal against panel of clinical isolates (biofilm biomass OD570) ([6]; P. aeruginosa clinical isolates, FIGS. 3A, 3C)","biofilm dispersal in pre-screening of eight D-AAs ([6]; pre-formed P. aeruginosa biofilms, FIG. 1)"
"C[C@@H](O)[C@H]1C(=O)N2C(C(=O)O)=C(SCCN=CN)C[C@H]12 [IMI, Imipenem]",>128 µg/mL,>128 µg/mL,64 µg/mL,128 µg/mL,128 µg/mL,64 µg/mL,–,–,–,–,–,–,–,–,–,–
"NCC[C@H](O)C(=O)N[C@@H]1C[C@H](N)[C@@H](O[C@H]2O[C@H](CN)[C@@H](O)[C@H](O)[C@H]2O)[C@H](O)[C@H]1O[C@H]1O[C@H](CO)[C@@H](O)[C@H](N)[C@H]1O [AMK, Amikacin]",>256 µg/mL,>256 µg/mL,16 µg/mL,16 µg/mL,16 µg/mL,16 µg/mL,–,–,–,–,–,–,–,–,–,–
"CSCC[C@@H](N)C(=O)O [D-Met, D-methionine]",–,–,–,–,–,–,capable of significantly dispersing biofilm formation,relatively more effective at dispersing biofilms,effective at dispersing established biofilms,effective at dispersing biofilms,cytotoxicity was also observed,~100%,60%,0.56,capable of significantly dispersing biofilm formation,relatively more effective at dispersing biofilms
